The text below walks through data of PMC5678585, “Screening a protein kinase inhibitor library against Plasmodium falciparum” (Malaria Journal, 2017).

Counter-ions that a name gives are not always drawn. Like-named read-outs stand apart in the source and are kept apart here.

In test [1] the test system is Plasmodium falciparum 3D7. Kind of test: microbe, parasite or virus in culture. The conditions noted are these: for Percentage inhibition of the growth of Plasmodium falciparum: Prestwick Library pilot screen, duplicate; for inhibition at 5 µM: 3D7, read-out: Percentage inhibition of the growth of Plasmodium falciparum, Prestwick Library pilot screen, screening conc. 0.005 mM, duplicate; for inhibition at 6 µM: 3D7, read-out: Percentage inhibition of the growth of Plasmodium falciparum, Prestwick Library pilot screen, screening conc. 0.006 mM, duplicate; for inhibition at 8 µM: 3D7, read-out: Percentage inhibition of the growth of Plasmodium falciparum, Prestwick Library pilot screen, screening conc. 0.008 mM, duplicate. The procedure: Growth inhibition was quantified using a fluorescence assay utilizing the binding of SYBR Green I to double stranded DNA, which emits a fluorescent signal at 528 nm after excitation at 485 nm. The SYBR Green assay system was adapted to maximize robustness and to align with available automation systems. The Prestwick Library then used as a pilot screen to validate the performance of the optimized assay. […] Single point screens were carried out, and the potency of compounds of interest was determined in duplicate on two independent occasions. A 96-well [^3H]-Hypoxanthine incorporation assay was also developed as a secondary assay in order to validate key compounds from each hit series in an orthogonal platform.
(§1) All data were processed using IDBS ActivityBase. […] The formula used to calculate Z’ is 1-3×(StDev_high+StDev_low)/ABS(Mean_high-Mean_low) .
Two independent assays were run.

For test [2], the system named is normal diploid human fibroblasts (MRC-5 pd30). As to the kind of experiment: cells. The test is classed as cell-based. The settings on record: Homo sapiens, MRC5; MRC-5 counter-screen plates; read-out: potency range (standard reference compound). The procedure:
Cells were plated and incubated overnight to allow them to adhere as monolayers. A working stock of each test compound was transferred to an intermediate 384-well plate and pre-diluted with minimum essential media (MEM). The pre-diluted stocks were then transferred onto the cell monolayers, and the plates were incubated for 68 h. Resazurin, to a final concentration of 50 μM was added to each well, after which plates were incubated for a further 3 h and measured for fluorescence (λ ex = 528 nm, λ em = 590 nm).
as §1
All EC50 Curve fitting was undertaken using XLFit version 4.2 using Model 205 with the following 4 parametric equation: y=A+B-A/1+[…], where A = % inhibition at bottom, B = % inhibition at top, C = EC50, D = slope, x = inhibitor concentration and y = % inhibition.

The mark [3] stands for this setting: Plasmodium falciparum, 3D7, read-out: Percentage inhibition of the growth of Plasmodium falciparum, Prestwick Library pilot screen, screening conc. 0.007 mM, duplicate.
Where [4] appears, read: Plasmodium falciparum, 3D7, read-out: Percentage inhibition of the growth of Plasmodium falciparum, Prestwick Library pilot screen, screening conc. 0.004 mM, duplicate.
[5] abbreviates: Plasmodium falciparum, read-out: Percentage inhibition of the growth of Plasmodium falciparum.
Where [6] appears, read: Plasmodium falciparum, 3D7, read-out: Percentage inhibition of the growth of Plasmodium falciparum, Prestwick Library pilot screen, screening conc. 0.003 mM, duplicate.

Consider `C=C[C@H]1CN2CC[C@H]1C[C@H]2[C@H](O)c1ccnc2ccccc12` [(-)-Cinchonidine, reference compound], for which the “Percentage inhibition of the growth of Plasmodium falciparum” value (“Percentage inhibition” for short) in test [1] (screening conc. 0.007 mM) worked out at 100 ± 1%.

For the molecule `COc1ccc2c(c1OC)CN1CCc3cc4c(cc3C1C2)OCO4` (stereo not drawn) [(d,l)-Tetrahydroberberine, reference compound], in test [1] (screening conc. 0.006 mM), the “Percentage inhibition” value is recorded as 83 ± 2%. For the molecule `COc1ccc(C[C@H]2NC[C@H](O)[C@H]2OC(C)=O)cc1` [Anisomycin, reference compound], the “Percentage inhibition” value in test [1] (screening conc. 0.008 mM) turned out to be 102 ± 2%. In the case of `C[C@@H]1CC[C@H]2[C@@H](C)C(=O)O[C@@H]3O[C@@]4(C)CC[C@@H]1[C@]32OO4` [Artemisinin, reference compound], the inhibition at 7 µM in test [1] (setting [3]) came out at 99.5 ± 0.1%. Also, the “Percentage inhibition” value in test [1] (screening conc. 0.007 mM) is given as 100%.

Regarding `COc1ccc(CCN2CCC(Nc3nc4ccccc4n3Cc3ccc(F)cc3)CC2)cc1` [Astemizole, reference compound], the inhibition at 4 µM in test [1] (setting [4]) stood at 97.3 ± 0.8%. Take `O=C1C(O)=C([C@H]2CC[C@H](c3ccc(Cl)cc3)CC2)C(=O)c2ccccc21` [Atovaquone, reference compound]: the inhibition at 5 µM in test [1] (Plasmodium falciparum) stood at 99 ± 2%. With `C[N+](C)(CCOc1ccccc1)Cc1ccccc1.O=C([O-])c1cc2ccccc2cc1O` [Bephenium hydroxynaphthoate, reference compound], the “Percentage inhibition” value in test [1] (screening conc. 0.005 mM) turned out to be 55.1 ± 0.5%. With `COc1ccc2cc3[n+](cc2c1OC)CCc1cc2c(cc1-3)OCO2` [Berberine chloride, reference compound], in test [1] (Plasmodium falciparum), the inhibition at 5 µM is 99 ± 2%. As for `CCCCOc1ccc(CC(=O)NO)cc1` [Bufexamac, reference compound], in test [1] (Plasmodium falciparum, 3D7, read-out: Percentage inhibition of the growth of Plasmodium falciparum, Prestwick Library pilot screen, screening conc. 0.009 mM, duplicate), the inhibition at 9 µM was 69 ± 2%. Regarding `CC[C@H]1CN2CCc3cc(OC)c(OC)cc3[C@@H]2C[C@@H]1C[C@H]1NCCc2cc(O)c(OC)cc21.Cl.Cl.O.O.O.O.O.O.O` [Cephaeline dihydrochloride heptahydrate, reference compound], the “Percentage inhibition” value in test [1] (screening conc. 0.003 mM) was determined as 101 ± 3%.

For `[H]/N=C(\N/C(=N/[H])NCCCCCCNC(=N)NC(=N)Nc1ccc(Cl)cc1)Nc1ccc(Cl)cc1` [Chlorhexidine, reference compound], the inhibition at 4 µM in test [1] (setting [4]) was 98 ± 1%.

As for `CCN(CC)CCCC(C)Nc1ccnc2cc(Cl)ccc12` (stereo not drawn) [Chloroquine diphosphate, reference compound], the inhibition at 4 µM in test [1] (setting [5]) was 104 ± 1%. As to `C=C[C@H]1C[N@@]2CC[C@H]1C[C@@H]2[C@@H](O)c1ccnc2ccccc12` [Cinchonine, reference compound], in test [1] (setting [3]), the inhibition at 7 µM turned out to be 101 ± 5%. Regarding `CCC(=O)O[C@]1(C(=O)CCl)[C@@H](C)C[C@H]2[C@@H]3CCC4=CC(=O)C=C[C@]4(C)[C@@]3(F)[C@@H](O)C[C@@]21C` [Clobetasol propionate, reference compound], the inhibition at 4 µM in test [1] (setting [4]) stood at 50 ± 16%.

Regarding `C[C@@H]1C[C@@H]([C@H](O)CC2CC(=O)NC(=O)C2)C(=O)[C@@H](C)C1` [Cycloheximide, reference compound], in test [1] (setting [5]), the inhibition at 7 µM stood at 103.1 ± 0.1%. Consider `COc1cccc2c1C(=O)c1c(O)c3c(c(O)c1C2=O)C[C@@](O)(C(C)=O)C[C@@H]3O[C@H]1C[C@H](N)[C@H](O)[C@H](C)O1` [Daunorubicin hydrochloride, reference compound], for which the inhibition at 4 µM in test [1] (setting [5]) was found to be 132 ± 1%.

In the case of `C[N+](C)(C)CCCCCCCCCC[N+](C)(C)C` [Decamethonium bromide, reference compound], the inhibition at 5 µM in test [1] (Plasmodium falciparum) worked out at 64 ± 3%. Take `CN(CCCCCCCCCCN(C)C(=O)Oc1cccc([N+](C)(C)C)c1)C(=O)Oc1cccc([N+](C)(C)C)c1` [Demecarium bromide, reference compound]: the inhibition at 3 µM in test [1] (setting [5]) was found to be 104 ± 2%. As to `COc1cc2nc(N3CCN(C(=O)C4COc5ccccc5O4)CC3)nc(N)c2cc1OC` (stereo not drawn) [Doxazosin mesylate, reference compound], the inhibition at 4 µM in test [1] (setting [4]) was 84 ± 0.6%.

With `COc1cccc2c1C(=O)c1c(O)c3c(c(O)c1C2=O)C[C@@](O)(C(=O)CO)C[C@@H]3O[C@H]1C[C@H](N)[C@H](O)[C@H](C)O1` [Doxorubicin hydrochloride, reference compound], the inhibition at 3 µM in test [1] (setting [6]) turned out to be 137 ± 2%. Consider `CC[C@H]1CN2CCc3cc(OC)c(OC)cc3[C@@H]2C[C@@H]1C[C@H]1NCCc2cc(OC)c(OC)cc21` [Emetine dihydrochloride, reference compound], for which the inhibition at 4 µM in test [1] (setting [4]) stood at 103 ± 2%.

Consider `Br.CC[C@H]1CN2CCC1C[C@H]2[C@H](O)c1ccnc2ccc(OC)cc12.O` (stereo partly drawn) [Hydroquinine hydrobromide hydrate, reference compound], for which, in test [1] (screening conc. 0.005 mM), the “Percentage inhibition” value was 99 ± 2%. Turning to `OC(c1cc(C(F)(F)F)nc2c(C(F)(F)F)cccc12)C1CCCCN1` (stereo not drawn) [Mefloquine hydrochloride, reference compound], the inhibition at 5 µM in test [1] (Plasmodium falciparum) is 97.4 ± 0.4%.

For `CN1C[C@H](CNC(=O)OCc2ccccc2)C[C@@H]2c3cccc4c3c(cn4C)C[C@H]21` [Metergoline, reference compound], the inhibition at 5 µM in test [1] (Plasmodium falciparum) worked out at 56 ± 2%. Regarding `CN(Cc1cnc2nc(N)nc(N)c2n1)c1ccc(C(=O)N[C@@H](CCC(=O)O)C(=O)O)cc1` [Methotrexate, reference compound], the inhibition at 4 µM in test [1] (setting [4]) turned out to be 100.9 ± 0.7%. On the same count and under the same terms, as for `O=C1c2c(O)ccc(O)c2C(=O)c2c(NCCNCCO)ccc(NCCNCCO)c21` [Mitoxantrone dihydrochloride, reference compound], the figure is 140 ± 2%.

For the molecule `COc1c(C)c2c(c(O)c1C/C=C(\C)CCC(=O)O)C(=O)OC2` [Mycophenolic acid, reference compound], in test [1] (Plasmodium falciparum), the inhibition at 6 µM came to 63 ± 3%.

As to `CC(=O)O[C@H]1C(=O)[C@@]2(C)[C@H]([C@H](OC(=O)c3ccccc3)[C@]3(O)C[C@H](OC(=O)[C@H](O)[C@@H](NC(=O)c4ccccc4)c4ccccc4)C(C)=C1C3(C)C)[C@]1(OC(C)=O)CO[C@@H]1C[C@@H]2O` [Paclitaxel, reference compound], the inhibition at 2 µM in test [1] (Plasmodium falciparum, 3D7, read-out: Percentage inhibition of the growth of Plasmodium falciparum, Prestwick Library pilot screen, screening conc. 0.002 mM, duplicate) is 65 ± 2%. Regarding `N=C(N)c1ccc(OCCCCCOc2ccc(C(=N)N)cc2)cc1` [Pentamidine isethionate, reference compound], the inhibition at 3 µM in test [1] (setting [6]) was determined as 100 ± 4%. Take `COc1cc(NC(C)CCCN)c2ncccc2c1` (stereo not drawn) [Primaquine diphosphate, reference compound]: the inhibition at 4 µM in test [1] (setting [4]) was 100 ± 4%.

Turning to `[H]/N=C(\N/C(=N/[H])Nc1ccc(Cl)cc1)NC(C)C` [Proguanil hydrochloride, reference compound], the inhibition at 7 µM in test [1] (setting [3]) worked out at 49 ± 4%. `CCCNCC(O)COc1ccccc1C(=O)CCc1ccccc1` (stereo not drawn) [Propafenone hydrochloride, reference compound]: the inhibition at 5 µM in test [1] (Plasmodium falciparum) was determined as 99 ± 1%. With `COc1ccc(C[C@H](N)C(=O)N[C@H]2[C@@H](O)[C@H](n3cnc4c(N(C)C)ncnc43)O[C@@H]2CO)cc1` [Puromycin dihydrochloride, reference compound], the inhibition at 4 µM in test [1] (setting [4]) turned out to be 96 ± 5%. As to `CCc1nc(N)nc(N)c1-c1ccc(Cl)cc1` [Pyrimethamine, reference compound], the inhibition at 8 µM in test [1] (Plasmodium falciparum) was found to be 101 ± 2%.

Take `CCN(CC)CCCC(C)Nc1c2ccc(Cl)cc2nc2ccc(OC)cc12` (stereo not drawn) [Quinacrine dihydrochloride dihydrate, reference compound]: the inhibition at 4 µM in test [1] (setting [4]) was 100 ± 2%. For `C=C[C@H]1CN2CC[C@H]1C[C@@H]2[C@@H](O)c1ccnc2ccc(OC)cc12.Cl.O` [Quinidine hydrochloride monohydrate, reference compound], the “Percentage inhibition” value in test [1] (screening conc. 0.005 mM) is on record as 100 ± 2%. As for `CCCCCCCCNC(C)C(O)c1ccc(SC(C)C)cc1` (stereo not drawn) [Suloctidil, reference compound], the inhibition at 6 µM in test [1] (Plasmodium falciparum) worked out at 101 ± 1%. With `CCCCCCCCCCCCCCCC[N+](C)(C)CCN(Cc1ccc(OC)cc1)c1ncccn1` [Thonzonium bromide, reference compound], the inhibition at 3 µM in test [1] (setting [6]) stood at 70 ± 1%. Regarding `Nc1nc(N)c2nc(-c3ccccc3)c(N)nc2n1` [Triamterene, reference compound], the inhibition at 8 µM in test [1] (Plasmodium falciparum) is 69 ± 1%. For the molecule `COc1cccc2c1C(=O)c1c(O)c3c(c(O)c1C2=O)C[C@@](O)(C(=O)CO)C[C@@H]3O[C@H]1C[C@H](N)[C@H](O)[C@H](C)O1` [doxorubicin, reference compound], the EC50 in test [2] was 200 to 400 nM. Regarding Verteporfin [reference compound], the “Percentage inhibition” value in test [1] (screening conc. 0.003 mM) was 95 ± 2%.
